Among the data in PubChem BioAssay (NCI) are TGI values, retold here.

SMILES strings stand for the structures.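 Test compounds were applied to cells in 96-well plates for 48 hours at 5 doses. At the TGI there is no net growth.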

Test systems include SK-MEL-5 melanoma; UO-31 renal; RXF 393 renal; A498 renal; SNB-78 CNS; ACHN renal; A549 NSCLC; SN12C renal; KM20L2 colon; XF 498 CNS; DU-145 prostate.
What all share (assay): inhibition of tumour cell growth, NCI panel, 48 h

`O=C1NC(=O)c2c1n(Cc1ccccc1)c(=O)n2Cc1ccccc1`: the TGI in the experiment with SK-MEL-5 melanoma is above 100 µM; in the experiment on UO-31 renal, above 100 µM; with RXF 393 renal it was above 100 µM; in the experiment with A498 renal it was 77.9 µM; with SNB-78 CNS, above 100 µM; in the experiment on ACHN renal it was above 100 µM. For the same molecule, the TGI with A549 NSCLC, with SN12C renal and in the experiment with KM20L2 colon was above 100 µM throughout.
For the molecule `O=[N+]([O-])c1ccccc1C1SCc2nc3ccccc3n21` (stereo not drawn), the TGI in the experiment with SK-MEL-5 melanoma was 48.3 µM; with UO-31 renal, above 100 µM; with RXF 393 renal, above 100 µM; in the experiment on A498 renal it was above 100 µM; with XF 498 CNS, above 100 µM; in the experiment on ACHN renal, above 100 µM. For the same molecule, the TGI in the experiment on A549 NSCLC and with SN12C renal was above 100 µM in each case.
As for `COC(=O)C1C(=O)O[C@@H](c2ccc3c(c2)OCO3)C1C(=O)OC` (mixture of isomers), the TGI in the experiment with SK-MEL-5 melanoma, in the experiment on UO-31 renal, in the experiment on RXF 393 renal, in the experiment on A498 renal, in the experiment on SNB-78 CNS and with ACHN renal was above 100 µM throughout. Further, the TGI in the experiment with A549 NSCLC, in the experiment on SN12C renal and with KM20L2 colon was above 100 µM each time.
In the case of `COc1nc2c(c(O)c(C)c(=O)n2OC2OCC(OC(C)=O)C(OC(C)=O)C2OC(C)=O)c(=O)n1C` (stereo not drawn), the TGI in the experiment on SK-MEL-5 melanoma, in the experiment with UO-31 renal, with RXF 393 renal, in the experiment with XF 498 CNS, in the experiment with SNB-78 CNS and in the experiment with ACHN renal was above 100 µM throughout. In addition, the TGI in the experiment with A549 NSCLC, in the experiment on SN12C renal and in the experiment with KM20L2 colon was above 100 µM in each case.
For `NNC(=O)C(=O)N/N=C1/CCCC1C(=O)CCC(=O)Nc1ccc(Cl)cc1` (stereo not drawn), the TGI with SK-MEL-5 melanoma, in the experiment with UO-31 renal, in the experiment on RXF 393 renal, in the experiment on A498 renal, with XF 498 CNS and in the experiment on SNB-78 CNS was above 100 µM in each case. The TGI with ACHN renal, with A549 NSCLC, in the experiment with SN12C renal and with KM20L2 colon was above 100 µM throughout.
For `O=c1cc(O)cc2n1CCC2`, the TGI with SK-MEL-5 melanoma, in the experiment on UO-31 renal, with RXF 393 renal, in the experiment with A498 renal, in the experiment with XF 498 CNS and with SNB-78 CNS was above 100 µM each time. For the same molecule, the TGI in the experiment with ACHN renal, in the experiment with A549 NSCLC, in the experiment on SN12C renal and in the experiment on KM20L2 colon was above 100 µM in each case.
For the molecule `O=C(NC12CC3CCC1CC(C3)C2)[C@@H]1CCCN1C(=O)OCc1ccccc1` (stereo partly drawn), the TGI is above 100 µM in the experiment with UO-31 renal; 54.6 µM in the experiment on RXF 393 renal; above 100 µM with A498 renal; above 100 µM with XF 498 CNS; above 100 µM with SNB-78 CNS; above 100 µM in the experiment on ACHN renal. Further, the TGI in the experiment on A549 NSCLC, in the experiment with SN12C renal and with KM20L2 colon was above 100 µM throughout.
Turning to `CC1=N/C(=C\c2ccc(/C=C3/N=C(C)OC3=O)cc2)C(=O)O1`, the TGI with SK-MEL-5 melanoma, in the experiment with UO-31 renal, in the experiment with RXF 393 renal, with A498 renal, with XF 498 CNS and with SNB-78 CNS was above 100 µM throughout. The TGI in the experiment with ACHN renal, in the experiment on A549 NSCLC, in the experiment on SN12C renal and with KM20L2 colon was above 100 µM in each case.
For the molecule `O=C(NC1C(=O)NNC1c1cccc([N+](=O)[O-])c1)c1ccccc1` (stereo not drawn), the TGI with SK-MEL-5 melanoma, in the experiment on UO-31 renal, with RXF 393 renal, in the experiment on XF 498 CNS, with SNB-78 CNS and in the experiment with ACHN renal was above 100 µM in each case. Also, the TGI with A549 NSCLC, in the experiment on SN12C renal and in the experiment on KM20L2 colon was above 100 µM throughout.
Turning to `COC(=O)CCC(NC(=S)N/N=C/c1cccs1)C(=O)OC` (stereo not drawn), the TGI with SK-MEL-5 melanoma, with UO-31 renal, in the experiment with RXF 393 renal, in the experiment on A498 renal, in the experiment on XF 498 CNS and with SNB-78 CNS was above 100 µM in each case. For the same molecule, the TGI in the experiment on ACHN renal, in the experiment on A549 NSCLC, in the experiment on SN12C renal and in the experiment on KM20L2 colon was above 100 µM in each case.
For the molecule `O=c1/c(=C/c2ccccc2[N+](=O)[O-])sc2nnc(-c3cccnc3)n12`, the TGI with SK-MEL-5 melanoma, in the experiment on UO-31 renal, in the experiment with RXF 393 renal, in the experiment with A498 renal, in the experiment with XF 498 CNS and in the experiment with SNB-78 CNS was above 100 µM throughout. Further, the TGI in the experiment on ACHN renal, in the experiment with A549 NSCLC, in the experiment with SN12C renal and with KM20L2 colon was above 100 µM in each case.
As to `CCOC(=O)c1nc(C)oc1C(F)(F)F`, the TGI with UO-31 renal, in the experiment with RXF 393 renal, in the experiment on A498 renal, in the experiment on XF 498 CNS, in the experiment on SNB-78 CNS and in the experiment with ACHN renal was above 100 µM throughout. The TGI in the experiment with A549 NSCLC, in the experiment on SN12C renal and with KM20L2 colon was above 100 µM throughout.
For the molecule `CC1=C(C(=O)Nc2ccccc2)C(c2ccc(N(C)C)cc2)C(C(=O)Nc2ccccc2)=C(C)N1`, the TGI in the experiment with SK-MEL-5 melanoma is 7.98 µM; in the experiment on UO-31 renal, 65.4 µM; in the experiment with RXF 393 renal, above 100 µM; in the experiment with A498 renal it was above 100 µM; with XF 498 CNS it was above 100 µM; in the experiment on SNB-78 CNS, above 100 µM. The TGI was above 73.6 µM in the experiment with ACHN renal; 98.9 µM in the experiment on A549 NSCLC; above 100 µM with SN12C renal; 7.26 µM in the experiment on KM20L2 colon; above 91.7 µM with DU-145 prostate.
On to `CCc1ccccc1NC(=O)c1cccc([N+](=O)[O-])c1O`, for which the TGI stood at 33.9 µM with SK-MEL-5 melanoma; 71.6 µM in the experiment with UO-31 renal; 45.1 µM in the experiment on RXF 393 renal; 88.2 µM in the experiment on A498 renal; 57.9 µM with XF 498 CNS; 94.2 µM in the experiment on SNB-78 CNS. The TGI is 62 µM in the experiment on ACHN renal, above 100 µM with A549 NSCLC, above 100 µM in the experiment with SN12C renal and 93.3 µM with KM20L2 colon.
